Experimental data reported in US20080113347A1, “Method for the in Vitro Diagnosis and Prognosis of Demyelinating Diseases, and for the Development of Drugs Against Demyelinating Diseases” (priority 2003, published 2008).

Tested on: dusp6 gene expression
Test: Differential analysis of dusp6 gene expression in oligodendrocyte cultures with Rat Genome U34 DNA arrays
Assay type: cell-based
Design: key to Change: Increases (I); Decreases (D); undergoes No Change (NC); Marginally Increases (MI); Marginally Decreases (MD); key to Detection: Present (P); Absent (A); Marginal (M)
Conditions: for SLR (vs control): Signal Log Ratio (log2); for Signal (dusp6, probe set U42627_at): arrays scaled to total intensity 100; for Change: vs control
From the text: Microarrays. The microarrays GeneChip Test 3 (Affymetrix, Santa Clara) were used which allow testing the quality of the RNA prior to the expression analysis with GeneChip Rat Genome U34 set (Affymetrix, Santa Clara), representing 3322 complete gene sequences. The dusp6 gene is represented in the microarray by probe set U42627_at of Affymetrix, which are sense oligonucleotides of 25 nucleotides in length designed on the basis of GeneBank U42627 sequence (Table 1).
Samples. The samples studied corresponded to primary oligodendrocyte cultures obtained from the optic nerve of 12-day old rats. To prevent inter-individual variations, each culture corresponded to a 10-animal cell pool. Treatments were made in duplicate with 10 μM AMPA (α-amino-3-hydroxy-5-methyl-4-isoxazolepropionic acid) or 3 μM kainate. The duration of treatments was 2, 10 and 15 minutes, the cells being collected immediately after treatment in the first two cases and 1 hour after the 15-minute treatment. Treatment for 10 and 15 minutes with AMPA and with kainate causes apoptosis, whereas 2-minute treatment was considered sublethal due to scarce treatment duration. After treatments, the cells were collected in TRIzol® Reagent (Life Technologies) and were stored at −80° C. until total RNA extraction.
The analysis was carried out with total RNA from oligodendrocyte cultures. Each sample corresponded to the mixture of total RNAs from two cultures and were called the following: control: untreated cultured oligodendrocytes ampa 2: oligodendrocytes treated for 2 minutes with 10 μM AMPA and collected after treatment ampa 10: oligodendrocytes treated for 10 minutes with 10 μM AMPA collected after treatment ampa 15: oligodendrocytes treated for 15 minutes with 10 μM AMPA and collected 60 minutes later Kainate 2: oligodendrocytes treated for 2 minutes with 3 μM kainate and collected after treatment Kainate 10: oligodendrocytes treated for 10 minutes with 3 μM kainate and collected after treatment Kainate 15: oligodendrocytes treated for 15 minutes with 3 μM kainate and collected 60 minutes later The total RNA of each one of the cultures was obtained by homogenizing the cells in TRIzol® Reagent (Life Technologies) following the supplier's recommendations. The resulting total RNA was cleaned with the RNeasy Mini kit (QIAGEN) (Chomczynski P. et al., Anal. Biochem., 1987, 162: 156; Chomczynski P., Biotechniques, 1993, 15: 532). 2 μg from each total RNA preparation were used as starting material for the synthesis of biotinylated cRNA with the MessageAmp™ aRNA kit (Ambion).
15 μg of each biotinylated cRNA were fragmented at 94° C. for 35 minutes in a buffer solution containing 40 mM Tris-Acetate (pH 8.1), 100 mM KOAc and 30 mM MgOAc. The fragmented cRNA was mixed with hybridization buffer (10 mM MES, 1M NaCl, 20 mM EDTA, 0.01% Tween 20) and was heated at 99° C. for 5 minutes and subsequently at 45° C. for 5 minutes, to then be loaded into the Affymetrix array. The first array in which hybridization was carried out was Affymetrix Test 3. This array allows testing the quality of the RNA prior to expression analysis in the Affymetrix® GeneChip® Rat Genome U34 set (RG-U34).
For hybridization, the arrays were incubated in a rotary oven at 45° C. for 16 hours and with a constant rotation of 60 rpm.
Washing and staining of each array was carried out in the Affymetrix® Fluidics Station. A washing and staining program was used which included:
The arrays were scanned at 560 nm using a confocal microscope using laser emission (Agilent GeneArray Scanner). Analysis of the intensity readings was carried out with Microarray Suite 5.0 software. To compare the arrays, the latter were scaled to a total intensity of 100.
Differential analysis of the dusp6 gene expression in the oligodendrocytes stimulated with regard to the control was carried out from the array comparison data obtained using the Affymetrix software. […]

[1] = treated 2 minutes (10 μM AMPA or 3 μM kainate), collected after treatment
[2] = treated 10 minutes (10 μM AMPA or 3 μM kainate), collected after treatment
[3] = treated 15 minutes (10 μM AMPA or 3 μM kainate), collected 60 minutes later

Structure (SMILES): Cc1onc(O)c1CC(N)C(=O)O (stereo not drawn) [AMPA, α-amino-3-hydroxy-5-methyl-4-isoxazolepropionic acid]
- SLR (vs control) [1]: 0.8
- SLR (vs control) [2]: 1.2
- SLR (vs control) [3]: 2.1
- Ratio (=2^SLR) (fold change vs untreated control, treated 2 minutes (10 μM AMPA or 3 μM kainate), collected after treatment): 1.7 fold
- Detection [1]: P
- Signal (dusp6, probe set U42627_at) [1]: 75.3
- Detection [2]: P
- Signal (dusp6, probe set U42627_at) [2]: 101.7
- Detection [3]: P
- Signal (dusp6, probe set U42627_at) [3]: 149.7
- Change [1]: I
- Change [2]: I
- Change [3]: I
